According to ChEMBL document CHEMBL1157539, “Thousands of chemical starting points for antimalarial lead identification” (Nature, 2010):
Structures can show the parent of a compound that is named as a salt.

System: Plasmodium falciparum
Assay: GSK_TCMDC: Inhibition of Plasmodium falciparum 3D7 in whole erythrocytes, using parasite LDH activity as an index of growth.
Type: functional, organism-based
Conditions: not given

Row | Compound | XC50 [nM]
1 | CCOc1ccc2nccc([C@@H](O)[C@@H]3C[C@@H]4CCN3C[C@@H]4CC)c2c1 [ETHYLHYDROCUPREINE HYDROCHLORIDE] | 112
2 | O=C(Nc1cccc(-c2cccc(-c3nc4ccccc4[nH]3)c2)c1)NC1CC1c1ccccc1 (configuration not stated) | 898
3 | FC(F)(F)c1ccc(NC(=S)NC2CCC(CN3CCC(c4c[nH]c5ccccc45)CC3)CC2)cc1 (configuration not stated) | 726

Same assay, conditions: Plasmodium falciparum, 3D7

Row | Compound | XC50 [nM]
4 | OC(c1cccc(OCc2ccccc2)c1)C1CN(CCc2ccccc2)CCC1(O)c1ccccc1 (configuration not stated) | 218
5 | Cn1c(NC(=O)C2CCC(CNC(=O)c3ccc(O)c(-c4ccc(Cl)c(Cl)c4)c3)CC2)nc2ccccc21 (configuration not stated) | 654
6 | C#CCCC(=O)Nc1cccc(-c2cccc(-c3nc4cccc(C)c4[nH]3)c2)c1 | 736
7 | CCc1c(CCNCCCCCCNC(C)(C)Cc2ccc3c(c2CC)OCO3)ccc(OC)c1OC | 934
8 | COc1cc(F)c2ncc(Cl)c([C@@H](O)CN3CCC(NCc4cc5c(cn4)OCCO5)CC3)c2c1 | 102
9 | Cc1ccccc1C1CCN(C2CCC(NC(=O)/C=C/c3cccc(C(F)(F)F)c3)CC2)CC1 (configuration not stated) | 1520
10 | Cc1ccc2c(=O)cc(CCc3cccc(F)c3F)n(CC(=O)N(Cc3ccc(-c4ccc(C(F)(F)F)cc4)cc3)C3CCN(C)CC3)c2n1 | 1260
11 | CCCc1c(C(=O)NC2CCC(CN3CCC(c4c[nH]c5ccccc45)CC3)CC2)cnn1-c1c(Cl)cc(Cl)cc1Cl (configuration not stated) | 820
12 | Cc1cccc(C(=O)Nc2ccnc(N(C)C3CCN(CC(C)C)CC3)c2)c1 | 869
13 | CC(=O)Nc1ccc(COc2ccc(Nc3ccnc4cc(-c5ccccn5)ccc34)cc2)cc1 | 196
14 | COc1ccc2[nH]c(C)cc(=NN=Cc3ccccc3Cl)c2c1 | 601
15 | Cc1cc(N2CCOCC2)nc(Nc2ccc(NC(=O)Nc3ccc(F)cc3)cc2)n1 | 495
16 | Cc1nc(O)c2c(ccc3ccc(CN(C)c4ccc(C(=O)N[C@@H](CCC(=O)O)C(=O)O)cc4)cc32)n1 | 879
17 | Cc1onc(-c2c(Cl)cccc2Cl)c1C(=O)N1CCc2cc3nccc(N4CCN5CCC[C@H]5C4)c3cc21 | 768
18 | Cn1cncc1C(=O)Nc1cccc(-c2ccc(-c3nc4cc(F)ccc4[nH]3)cc2)c1 | 735
19 | CCc1ccc(C2CCN(CCCCNC(=O)c3ccc(-c4ccc(C(F)(F)F)cc4)cc3)CC2)c(OCCO)c1 | 410
20 | COc1cccc(Nc2nc(C)cc(NCc3ccc(-n4ccnc4)cc3)n2)c1 | 958
21 | CCC[C@@H]([C@@H](CC1CCCCC1)C(=O)N[C@H](C(=O)Nc1nccs1)C(C)(C)SCCNC(=O)OCC)N(O)C=O | 83.4
22 | COc1ccc(CNC2CCN(C)CC2)cc1-c1ccc(S(=O)(=O)NCCc2ccccn2)c(F)c1 | 819
23 | COc1ccc(CN(C)CCCOc2ccc(NC(=O)c3cccc4c(=O)c5cccc(F)c5[nH]c34)cc2)cc1OC | 637
24 | COc1ccc(CC(=O)NC(CCN2CCC3(CC2)CN(S(C)(=O)=O)c2ccccc23)c2ccc(Cl)c(Cl)c2)cc1OC (configuration not stated) | 998
25 | COc1cc(Cl)c(C)cc1N(Cc1ccccc1-c1ccccc1)S(=O)(=O)c1ccc(C(F)(F)F)cc1 | 1050

Row | Compound | XC50 [nM]
26 | Cc1cccc(CN2CCN(c3ncc(C(=O)NC4CC4)cc3Cl)CC2)c1 | 1310
27 | CC(C)(C)c1cc(CN2CCN(Cc3ccccc3)CC2)cc(C(C)(C)C)c1O | 771
28 | COc1ccc(NC(=O)[C@H](CC(C)C)Nc2cc(C)nc(NCc3ccccc3C)n2)cc1 | 888
29 | Oc1ccc2[nH]c(-c3cccc(F)c3)nc2c1CNCc1ccccc1 | 916
30 | O=C(Nc1cccc(-c2cccc(-c3ccc(F)cc3)n2)c1)c1ccc([N+](=O)[O-])o1 | 361
31 | O=C(/C=C/c1ccc2ccccc2c1)NCCCCCN1CCC(c2c[nH]c3ccccc23)CC1 | 1220
32 | Cn1nccc1C(=O)NCCNCc1cccc(-c2ccc(-c3nc4ccccc4[nH]3)s2)c1 | 303
33 | CCOc1cc(C)ccc1N1CCN(CCN2CCC(NC(=O)c3ccc(-c4ccc(C#N)cc4)cc3)CC2)CC1 | 1430
34 | O=[N+]([O-])c1cccc(CNCC2CCN(Cc3ccc(-c4ccccc4)cc3)CC2)c1 | 248
35 | COc1cccc(-c2ccc3c(-c4cccc(NC(C)=O)c4)cnc(N)c3c2)c1 | 106
36 | c1ccc2[nH]c(-c3ccc(-c4ccc(CN5CCCCC5)cc4)cc3)nc2c1 | 750
37 | Cn1c(=O)c2nc(-c3ccc(Cl)cc3)nnc2n(CCCC#N)c1=O | 153
38 | COc1ccc(CNCc2cccc(-c3ccc(-c4nc5cc(C(F)(F)F)ccc5[nH]4)cc3)c2)cc1 | 126
39 | O=C(Nc1cccc(-c2cccc(-c3nc4ccccc4[nH]3)c2)c1)NC1CC1c1ccccc1 (configuration not stated) | 1070
40 | Oc1ccc(CCNc2nc(NCc3ccccc3-c3ccc(C(F)(F)F)cc3)nc(N3CCNCC3)n2)cc1 | 866
41 | Cc1cc(NCCCCCCN)nc(Nc2ccc(Cl)cc2)n1 | 448
42 | O=[N+]([O-])c1cccc(NC(=S)N2CCCN(Cc3ccc(C(F)(F)F)cc3)CC2)c1 | 1200
43 | CC(=O)N1N=C(c2ccc(F)cc2)Sc2c1nc(-c1ccccc1)n2C(C)=O | 651
44 | Cc1[nH]c2cc(F)ccc2c1C1=CCN(CCCCC2(C)C(=O)Nc3c(F)cccc32)CC1 (configuration not stated) | 397
45 | Cc1c(Cc2ccccc2Br)cnc2nc(N)nc(N)c12 | 4.62
46 | O=C(/C=C/c1ccc(Cl)c(Cl)c1)N(Cc1ccccc1)C1CCC(CN2CCC(c3c[nH]c4ccccc34)CC2)CC1 (configuration not stated) | 209
47 | CC1(C)N=C(N)N=C(N)N1OCCCOc1cc(Cl)c(Cl)cc1Cl | 3.2

Row | Compound | XC50 [nM]
48 | O=c1cc(N2CCCNCC2)c(Cl)nn1Cc1ccc(NS(=O)(=O)c2ccc(Oc3ccccc3)cc2)cc1 | 800
49 | NC(=O)c1ccsc1NC(=O)CNC(c1ccccc1)c1ccc(Cl)cc1 (configuration not stated) | 262
50 | CC(C)c1ccc(NC(=O)c2cccc(CN3CCCN(CC4CCCCC4)CC3)c2)cc1 | 710
51 | N#Cc1ccc(CNCCCCCCNCc2ccc(C#N)c3ccccc23)c2ccccc12 | 610
52 | FC(F)(F)c1ccc(NC(=S)NC2CCC(CN3CCC(c4c[nH]c5ccccc45)CC3)CC2)cc1 (configuration not stated) | 392
53 | Nc1n[nH]c(-c2ccccc2Nc2ccnc3cc(-c4nccs4)ccc23)n1 | 1120
54 | CC(C)C[C@@H](C(=O)N[C@@H](CCCCNC(=O)OCc1ccccc1)C(=O)Nc1nccs1)[C@H](C)N(O)C=O | 190
55 | CN(c1ccc2c(c1)nc(NC(=O)C1(c3cc(F)ccc3F)CC1)n2C)c1ccnc(Nc2cccc(CS(C)(=O)=O)c2)n1 | 1100
56 | Cc1ccccc1C1CCN(C2CCC(NC(=O)/C=C/c3ccc(OC(F)(F)F)cc3)CC2)CC1 (configuration not stated) | 857
57 | CC(Cc1ccc(NC(=O)c2ccc(CNCCc3ccccc3)cc2)cc1)NCCc1cccc(Cl)c1 (configuration not stated) | 353
58 | COc1cccc2c1CCN(CCN1CCC(CNC(=O)c3ccc(-c4ccc(C#N)cc4)cc3)CC1)C2 | 758
59 | Cc1csc(-c2ncc(OC[C@@H](N)Cc3ccccc3)cc2-c2ccc3[nH]nc(C)c3c2)c1 | 836
60 | CS(=O)(=O)c1ccc(CNCc2ccc(-c3cccc(-c4nc5cc(F)ccc5[nH]4)c3)cc2)cc1 | 315
61 | CC(C)n1c(C(C)(C)C)cc2c3c(N)nc(N)nc3ccc21 | 3.2
62 | CNc1c2c(nc3ccc(NC(=O)CCCCCCc4ccccc4)cc13)CCCC2 | 915
63 | CC(=O)N(Cc1cccc(-c2ccc(CNCCc3ccccc3)cc2)c1)C1CCN(Cc2ccccc2)CC1 | 691
64 | Oc1ccc2[nH]cc(C3CCN(CCCCCCCCCN4CCC(c5c[nH]c6ccc(O)cc56)CC4)CC3)c2c1 | 314
65 | Oc1ccc(CCNc2nc(NCCOc3cccc4ccccc34)nc(N3CCNCC3)n2)cc1 | 901
66 | CN1CCCN(c2ccnc3cc4c(cc23)N(C(=O)c2ccc(C(F)(F)F)cc2)CC4)CC1 | 794
67 | CCN(CC)CCCn1c(N)c(-c2nc3ccccc3[nH]2)c2nc(C#N)c(C#N)nc21 | 267
